This is an account of results in patent publication US20250312362A1, “INHIBITORS OF MsbA AS ANTIBIOTICS, PHARMACEUTICAL COMPOSITIONS, AND USES THEREOF” (Merck Sharp & Dohme LLC, priority 2022, published 2025).

≈ marks a conversion by molar mass, not a printed value. Some results are limits rather than exact numbers.

This experiment deals with various strains of bacteria. The experiment in a line: Antimicrobial potency: bacterial growth inhibition by OD600 (Antibacterial assay 1). Type of experiment: cell-based. The following applies: read-out: Antibacterial assay 1 (MITC95). The method, then:
The concentrations of compounds required to inhibit the growth of various strains of bacteria were determined in an assay that assessed bacterial growth by measuring optical density at 600 nm (OD600). Test articles were dissolved in 100% DMSO and serially diluted two-fold from their maximal concentration in 100% DMSO. Forty-nine μl of bacterial inoculum (at approx. 2×10^5 cfu/mL in CAMHB) were put into wells of an assay plate. One μl of compound or DMSO was transferred from the source plate to the assay plate. The completed assay plates were then incubated at 35±2 degC. for 18-22 h. Bacterial growth was measured by reading OD600 on a spectrophotometer. Data analysis calculates the lowest concentration of compound which results in ≥95% growth inhibition (minimum inhibitory threshold concentration 95%, MITC95).
As for `CCCCc1ccc(S(=O)(=O)Nc2ccc(NC(=O)CCC(=O)Nc3ccc(NS(=O)(=O)c4ccc(CCCC)cc4)c(P(=O)(O)O)c3)cc2C(=O)O)cc1` [Compound 1, 2-((4-butylphenyl)sulfonamido)-5-(4-((4-((4-butylphenyl)sulfonamido)-3-phosphonophenyl)amino)-4-oxobutanamido)benzoic acid], the MIC came out at 1.56 µM (≈ 1.27 µg/mL).
For `CCCCc1ccc(S(=O)(=O)Nc2ccc(NC(=O)CCC(=O)Nc3ccc(NS(=O)(=O)c4ccc(CCCC)cc4)c(C(=O)O)c3)cc2C(=O)O)cc1` [Compound 2, 5,5′-(succinylbis(azanediyl))bis(2-((4-butylphenyl)sulfonamido)benzoic acid)] the value was 0.0568 µM (≈ 0.0442 µg/mL).
The same measure for `CCCCc1ccc(S(=O)(=O)Nc2ccc(NC(=O)CCC(=O)Nc3cnc(NS(=O)(=O)c4ccc(CCCC)cc4)c(C(=O)O)c3)cc2C(=O)O)cc1` [Compound 3, 2-((4-butylphenyl)sulfonamido)-5-(4-((4-((4-butylphenyl)sulfonamido)-3-carboxyphenyl)amino)-4-oxobutanamido)nicotinic acid]: 0.621 µM (≈ 0.484 µg/mL); for `O=C(CCCOc1ccc(NS(=O)(=O)c2ccc(-c3ccc(Cl)cc3)s2)c(C(=O)O)c1)Nc1ccc(NS(=O)(=O)c2ccc(-c3ccc(Cl)cc3)s2)c(C(=O)O)c1` [Compound 4, 5-(4-(3-Carboxy-4-((5-(4-chlorophenyl)thiophene)-2-sulfonamido)phenoxy)-butanamido)-2-((5-(4-chlorophenyl)thiophene)-2-sulfonamido)benzoic acid]: 0.0122 µM (≈ 0.0108 µg/mL).
For `O=C(CCCOc1ccc(NS(=O)(=O)c2cnn(-c3ccc(Cl)cc3)c2)c(C(=O)O)c1)Nc1ccc(NS(=O)(=O)c2ccc(-c3cc(Cl)cc(Cl)c3)cc2)c(C(=O)O)c1` [Compound 5] the value was 0.0122 µM (≈ 0.011 µg/mL); for `O=C(CCCOc1ccc(NS(=O)(=O)c2cnn(-c3ccc(Cl)cc3)c2)c(C(=O)O)c1)Nc1ccc(NS(=O)(=O)c2ccc(-c3ccc(F)cc3)cc2)c(C(=O)O)c1` [Compound 6], 0.0173 µM (≈ 0.0147 µg/mL).
`Cc1c(S(=O)(=O)Nc2ccc(NC(=O)CCCOc3ccc(NS(=O)(=O)c4cnn(-c5ccc(Cl)cc5)c4)c(C(=O)O)c3)cc2C(=O)O)sc2ccc(Cl)cc12` [Compound 7]: the MIC is 0.0122 µM (≈ 0.0105 µg/mL).
The same measure for `CCCCc1ccc(S(=O)(=O)Nc2ccc(NC(=O)CCCOc3ccc(NS(=O)(=O)c4sc(-c5ccccc5)nc4C)c(C(=O)O)c3)cc2C(=O)O)cc1` [Compound 8]: 0.0173 µM (≈ 0.014 µg/mL); for `O=C(CCCOc1ccc(NS(=O)(=O)c2ccc(Oc3ccc(Cl)cc3)nc2)c(C(=O)O)c1)Nc1ccc(NS(=O)(=O)c2ccc(Oc3ccc(Cl)cc3)nc2)c(C(=O)O)c1` [Compound 9]: 0.0122 µM (≈ 0.0111 µg/mL).
For `CCCCc1ccc(S(=O)(=O)Nc2ccc(OCCCC(=O)Nc3ccc(NS(=O)(=O)c4ccc(CCCC)cc4)c(C(=O)O)n3)cc2C(=O)O)cc1` [Compound 10] the value was 0.985 µM (≈ 0.755 µg/mL).
The same measure for `O=C(CCCOc1ccc(NS(=O)(=O)c2cnn(-c3ccc(Cl)cc3)c2)c(C(=O)O)c1)Nc1ccc(NC(=O)Cc2ccc(-c3ccc(F)cc3)cc2)c(C(=O)O)c1` [Compound 11]: 0.0489 µM (≈ 0.0404 µg/mL); for `O=C(CCCOc1ccc(NS(=O)(=O)c2cnn(-c3ccc(Cl)cc3)c2)c(C(=O)O)c1)Nc1ccc(NC(=O)Cc2cccc(-c3ccc(F)cc3)c2)c(C(=O)O)c1` [Compound 12]: 0.0489 µM (≈ 0.0404 µg/mL).
Consider `O=C(COc1ccc(NS(=O)(=O)c2cnn(-c3ccc(Cl)cc3)c2)c(C(O)O)c1)Nc1ccc(NC(=O)C(=O)NCc2ccc(Cl)cc2)c(C(=O)O)c1` [Compound 13], for which the MIC came to 0.0978 µM (≈ 0.0766 µg/mL).
Consider `O=C(Nc1ccc(NS(=O)(=O)c2cnn(-c3ccc(F)cc3)c2)c(C(=O)O)c1)Nc1ccc(NS(=O)(=O)c2cnn(-c3ccc(F)cc3)c2)c(C(=O)O)c1` [Compound 14, 5-(3-(3-carboxy-4-((1-(4-fluorophenyl)-1H-pyrazole)-4-sulfonamido)phenyl)ureido)-2-((1-(4-fluorophenyl)-1H-pyrazole)-4-sulfonamido)benzoic acid], for which the MIC was determined as 3.13 µM (≈ 2.44 µg/mL).
`CCCCc1ccc(S(=O)(=O)Nc2ccc(NC(=O)Nc3ccc(NS(=O)(=O)c4ccc(CCCC)cc4)c(C(=O)O)c3)cc2C(=O)O)cc1` [Compound 15]: the MIC came out at 2.21 µM (≈ 1.6 µg/mL).
As to `O=C(Nc1ccc(NC(=O)C(=O)NCc2ccc(Cl)cc2)c(C(=O)O)c1)Nc1ccc(NC(=O)C(=O)NCc2ccc(Cl)cc2)c(C(=O)O)c1` [Compound 17, 5,5′-(carbonylbis(azanediyl))bis(2-(2-((4-chlorobenzyl)amino)-2-oxoacetamido)benzoic acid)], the MIC turned out to be 0.0245 µM (≈ 0.0177 µg/mL).
Take `O=C(Nc1ccc(NC(=O)C(=O)NCCc2ccc(Cl)cc2)c(C(=O)O)c1)Nc1ccc(NC(=O)C(=O)NCCc2ccc(Cl)cc2)c(C(=O)O)c1` [Compound 19]: the MIC is more than 3.13 µM.
In the case of `CCCCc1ccc(S(=O)(=O)Nc2ccc(NC(=O)CCNC(=O)c3ccc(NS(=O)(=O)c4ccc(CCCC)cc4)c(C(=O)O)c3)cc2C(=O)O)cc1` [Compound 20, 2-((4-butylphenyl)sulfonamido)-5-(3-(4-((4-butylphenyl)sulfonamido)-3-carboxy-benzamido)propanamido)benzoic acid], the MIC came out at 0.112 µM (≈ 0.0872 µg/mL).
For `CCCCc1ccc(S(=O)(=O)Nc2ccc(NC(=O)CCNC(=O)c3ccc(NS(=O)(=O)c4ccc(CCOC)cc4)c(C(O)O)c3)cc2C(=O)O)cc1` [Compound 21] the value was 0.782 µM (≈ 0.612 µg/mL); for `CCCCc1ccc(S(=O)(=O)Nc2ccc(NC(=O)C[C@H](C)NC(=O)c3ccc(NS(=O)(=O)c4ccc(CCCC)cc4)c(C(O)O)c3)cc2C(=O)O)cc1` [Compound 22], 0.782 µM (≈ 0.622 µg/mL).
For `O=C(CCNC(=O)c1ccc(NS(=O)(=O)c2cnn(-c3ccc(Cl)cc3)c2)c(C(O)O)c1)Nc1ccc(NS(=O)(=O)c2cnn(-c3ccc(Cl)cc3)c2)c(C(=O)O)c1` [Compound 23] the value was 0.098 µM (≈ 0.0852 µg/mL).
